# Measurements as given in patent US20250099414A1, “COMPOSITIONS AND METHODS FOR TREATING TRIPLE-NEGATIVE BREAST CANCER” (The Board of Regents of the University of Oklahoma, priority 2019, published 2025).
# Entries after “also recorded” stand apart in the source; their conditions may differ. Where two headings read alike, the source gives them in different places.
# What was measured:
# [1] = system: healthy MCF10A human breast cells; assay: ANXA5 colorimetric binding (modified indirect ELISA), MCF10A
# Procedure: (§1) Binding strength was analyzed via a modified indirect ELISA. Cells (50,000 cells/well) were grown onto 24 well plates and fixed with 0.025% glutaraldehyde once cancer cells were 70-80% confluent, or MCF10A noncancerous cells were 100% confluent. Cancer cells were blocked with 0.5% BSA for 1 h at 37° C. Cells were incubated with 0-20 nM of biotinylated ANXA5 for 2 h at 37° C. and 5% CO2. ANXA5 was biotinylated with a Roche biotin protein labeling kit (Roche, Basel, Switzerland), and the level of biotinylation was quantified with a Pierce Biotin Quantification kit (Pierce Biotechnology, Waltham, MA, USA) per manufacturer's instructions. Cells were washed four times with 0.5% BSA to remove unbound ANXA5. […] The supernatant was collected, and the absorbance was read at 450 nm on a BioTek Synergy HT microtiter plate reader (Winooski, VT). […] The dissociation constant was determined using the nonlinear regression one-site total and nonspecific binding model in GraphPad Prism version 9 software (Graph Pad, San Diego California, USA).
# (§2) To confirm the ability of the ANXA5 to bind to PS on the surface of TNBC cells, equilibrium binding experiments with increasing concentrations of biotinylated ANXA5 were used. […] After subtracting out 0 nM ANXA5 background absorbance, the non-specific binding was essentially 0, meaning ANXA5 was not binding to the EMT6 and 4T1 cells when Ca^2+ was absent. […]
# [2] = system: EMT6-strain TNBC cells with PS externalization; assay: ANXA5 colorimetric binding (modified indirect ELISA), EMT6; parameters: species or system murine; conditions: 0-20 nM biotinylated ANXA5; 2 mM Ca2+; read-out: dissociation constant of the specific binding
# Procedure: as §1, §2
# [3] = system: 4T1-strain TNBC cells with PS externalization; assay: ANXA5 colorimetric binding (modified indirect ELISA), 4T1; parameters: species or system murine; conditions: 0-20 nM biotinylated ANXA5; 2 mM Ca2+; read-out: dissociation constant of the specific binding
# Procedure: as §1, §2
# EMT6 = assay: ANXA5-CMB TNBC cell cytotoxicity, EMT6; type: cell-based, murine; conditions: 24 hours
# Excerpt: (§3) While the cytotoxic activity of the ANXA5-CMB conjugate is excellent against TNBC cells, the cytotoxicity of the conjugate must be tested against healthy vascular and mammary cells.
# 4T1 = assay: ANXA5-CMB TNBC cell cytotoxicity, 4T1; type: cell-based, murine; conditions: 24 hours
# Excerpt: as §3
# healthy MCF10A cells = assay: ANXA5-DM1 and ANXA5 cell viability assay (AlamarBlue), healthy mammary cells; conditions: for IC50: read-out: IC50, cell viability, 72 h, 100% confluent cells
# EMT6 cells [4] = assay: ICD study: cytotoxicity (cell death) after 24 hours; type: cell-based, murine; conditions: 10 nM DM1
# mouse EMT6 TNBC cells = conditions: for IC50: read-out: IC50, cell viability, 72 h, concentration of DM1 as free drug or in the conjugate, 2 mM calcium
# MCF10A cells = assay: ANXA5-CMB healthy cell cytotoxicity (resazurin), MCF10A; type: cell-based, human; conditions: 90-100% confluency; 2 mM calcium; 24 hours
# Procedure: (§4) Cell viability was assayed by a resazurin assay (n=3-6). […] Cells were treated with 0-100 μM of CMB in the ANXA5-CMB conjugate in growth media fully supplemented with 2 mM calcium to promote ANXA5 binding. After 72 hours, an Alamar Blue assay was utilized to determine viability. Percent viability was determined by comparing treatment groups to the untreated control (0 μM).
# (§5) Cells were treated with 0-100 μM CMB in the ANXA5-CMB conjugate in fully supplemented growth medium with 2 mM calcium. Cells were grown to 90-100% confluency. […] Cell viability was measured via an Alamar Blue assay and viability was compared to the control (0 μM) after 24 hours. Data is presented as mean±SD (n=4-8). Cells were treated with 0-100 μM CMB in the ANXA5-CMB conjugate in fully supplemented growth medium with 2 mM calcium. Cells were grown to 90-100% confluency. […] Cell viability was measured via an Alamar Blue assay and viability was compared to the control (μM) after 24 hours. Data is presented as mean±SD (n=4-8).
# murine TNBC cells = assay: ANXA5-CMB TNBC cell cytotoxicity, statements on both lines together; type: cell-based; conditions: at 1 μM
# Excerpt: as §3
# HUVEC cells = assay: ANXA5-CMB healthy cell cytotoxicity (resazurin), HUVEC; conditions: dose up to 100 μM CMB in the conjugate; 90-100% confluency; 2 mM calcium; 24 hours
# Procedure: as §4, §5
# EMT6 cells [5] = assay: Immunogenic cell death: ATP release (luminescence kit); type: cell-based, murine; conditions: 24 h
# Procedure: To determine if ANXA5-DM1 induces ATP release from cells after treatment, an ATP luminescence kit (Molecular Probes, Eugene, OR, USA) was utilized according to the manufacturer's instructions. […] After 24 h, 10 μL of cell media was added to 90 μL of standard reaction solution in a white plate. Luminescence reading was obtained from the plate reader, and ATP concentration was calculated by comparing the luminescence reading to a standard curve.
# EMT6 cells [6] = assay: Immunogenic cell death: calreticulin surface expression (flow cytometry); type: cell-based, murine; conditions: 10 nM DM1; 24 h
# Procedure: To determine if ANXA5-DM1 induces calreticulin surface expression, flow cytometry was utilized. EMT6 and 4T1 cells were seeded at 25,000 cells/well in 24 well plates and treated 24 h after seeding. […] After 24 h, media was collected into microcentrifuge tubes to collect dead cells. To ensure there would be enough cells, three wells were combined to be one sample. Cells in the plates were then washed with PBS, and 100 μL of trypsin was added to each well. Once 90% of the cells were removed from the plate (2-5 min), cells were added to the microcentrifuge tubes and centrifuged at 500×g for 5 min. Cells were resuspended in 200 μL of 0.5% BSA-PBS and counted to have at least 100,000 cells per sample. Cells were then fixed with 4% paraformaldehyde (PFA, Thermo Fisher Scientific, Waltham MA, USA) for 20 min at 4° C. Cells were then washed two times with 500 μl of 0.5% BSA-PBS at 500×g for 5 minutes. […] After incubation, cells were analyzed on a BD Biosciences Accuri C6 flow cytometer (Franklin Lakes, New Jersey, USA) with excitation at 488 nm, and a 533/30 bandpass filter was used to capture 10,000 gated events per sample. Data was collected and analyzed with BD C6 Accuri software. One sample was composed of three wells, and each sample was analyzed three times. […]
# 4T1 cells = assay: ANXA5-VPA TNBC cytotoxicity (Alamar Blue), 4T1; type: cell-based, murine; conditions: 48 hours, VPA in the conjugate or free VPA, 10^−4 to 10 mM
# Procedure: (§6) After confirming the conjugation of VPA to ANXA5, the cytotoxicity of the ANXA5-VPA conjugate was tested in two murine TNBC cell lines (EMT6 and 4T1). […] EMT6 and 4T1 cells were seeded at 5,000 cells/well in 96 well plates and treated 48 hours after seeding. Cells were treated with 10^−4 to 10 mM of VPA in the ANXA5-VPA conjugate or free VPA growth medium fully supplemented with 2 mM of calcium to promote ANXA5 binding. After 48 hours, cell viability was analyzed via a fluorescent Alamar Blue assay. Percent viability was determined by normalizing the control (0 mM VPA) to 100% and comparing each treatment group to the control (n=3).
# [7] = cited from earlier work
# EMT6 cells [8] = assay: ANXA5-VPA TNBC cytotoxicity (Alamar Blue), EMT6; type: cell-based, murine; conditions: 48 hours, VPA in the conjugate or free VPA, 10^−4 to 10 mM
# Procedure: as §6
# [9] = system: murine TNBC cell lines (EMT6 and 4T1); assay: ANXA5-VPA TNBC cytotoxicity, statement on both lines together; type: cell-based; conditions: 48 hours
# Procedure: as §6
# [10] = read-out: IC50, cell viability, 72 h, concentration of DM1 as free drug or in the conjugate, 2 mM calcium
molecule,measurement,setting,value
ANXA5: recombinant annexin A5 produced in E. coli; binds phosphatidylserine in a Ca2+-dependent manner,dissociation constant (Kd),[1]; cells grown to confluence,not detectable
same,specific binding of ANXA5 to the cells,[1]; total minus nonspecific binding,no specific binding; also recorded: no ANXA5-PS binding was observed
same,Kd,[2],0.00114 µM
same,Kd,[3],0.00231 µM
"O=C(O)CCCc1ccc(N(CCCl)CCCl)cc1 [CMB, Chlorambucil, reference compound]",IC50,"EMT6; Mus musculus, EMT6",102 µM
same,IC50,"4T1; Mus musculus, 4T1",156 µM
"COc1cc2cc(c1Cl)N(C)C(=O)C[C@H](OC(=O)[C@H](C)N(C)C(=O)CCS)[C@]1(C)O[C@H]1[C@H](C)[C@@H]1C[C@@](O)(NC(=O)O1)[C@H](OC)/C=C/C=C(\C)C2 [DM1, Mertansine, reference compound]",IC50,healthy MCF10A cells; concentration of DM1,0.16 µM
same,cell death (cytotoxicity),EMT6 cells [4],significantly increased cell death
same,IC50,mouse 4T1 TNBC cells; [10],0.32 µM
same,IC50,mouse EMT6 TNBC cells,0.028 µM
ANXA5-CMB: chlorambucil linked to ANXA5 lysine residues via EDC crosslinking chemistry,IC50,MCF10A cells,6 µM
same,IC50,EMT6,0.42 µM
same,IC50 ratio (CMB / ANXA5-CMB),EMT6,241
same,IC50,4T1,2.7 µM
same,IC50 ratio (CMB / ANXA5-CMB),4T1,57
same,cytotoxicity,murine TNBC cells,100%
same,effect on cell viability,HUVEC cells,did not impact viability
ANXA5-DM1: mertansine (DM1) linked to lysine residues of recombinant annexin A5 with the crosslinker sulfo-SMCC,ATP release,"EMT6 cells [5]; 10 nM DM1, versus free DM1 or control",significantly increased ATP release; also recorded: significant increase
same,ATP released relative to free DM1,EMT6 cells [5]; 10 nM,~10 times
same,cytotoxicity to healthy breast cells,"healthy MCF10A cells; 100% confluence, compared with free DM1, doses up to 48 μM",significantly less cytotoxic; also recorded: does not have cytotoxic effects
same,IC50,healthy MCF10A cells; concentration of DM1,> 5 µM
same,IC50,healthy MCF10A cells; doses up to 48 μM,> 48 µM
same,cell death (cytotoxicity),EMT6 cells [4],significantly increased cell death
same,calreticulin surface expression (median fluorescent intensity),EMT6 cells [6],significantly increased calreticulin surface expression; also recorded: significant increase
same,potency (IC50) relative to free DM1,mouse 4T1 TNBC cells; 72 h viability assay,more than 2 orders of magnitude
same,IC50,mouse 4T1 TNBC cells; [10],0.00085 µM
same,IC50,"mouse 4T1 TNBC cells; read-out: equivalent IC50 based on the ANXA5 concentration, assuming 4 moles DM1 per mole ANXA5, from 0.85 nM DM1",0.00021 µM
same,potency (IC50) relative to free DM1,mouse EMT6 TNBC cells; 72 h viability assay,more than 2 orders of magnitude
same,IC50,mouse EMT6 TNBC cells,0.00021 µM
"CCCC(CCC)C(=O)O [VPA, Valproic acid]",IC50 concentration,4T1 cells,could not be obtained with a dose of up to 10 mM; also recorded: could not be calculated
same,IC50,"[7]; 72-96 hours, read-out: concentration required to achieve an IC50 value",> 1000 µM
same,dose required to be effective in vitro,"[7]; delivered alone, after 72 hours",1 to 10 mM
same,IC50 concentration,EMT6 cells [8],could not be obtained with a dose of up to 10 mM; also recorded: could not be calculated
ANXA5-VPA,IC50,4T1 cells; read-out: IC50 concentration,~10 µM
same,IC50,EMT6 cells [8]; read-out: IC50 concentration,~10 µM
same,lowest dose with significantly increased cell death compared to the free drug control,[9],97 nM
